Tests used:
Assay in all cases: Test B pre-/postemergence plant response
Format in all cases: in vivo
[1] = tested on: catchweed bedstraw (Galium aparine); settings: Preemergence, scale 0 to 100
How it was run: (§1)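 Preemergence and postemergence (plants 2-18 cm, 1- to 4-leaf stage) applications used test chemicals in a non-phytotoxic solvent with surfactant. Plants were held in a greenhouse 13 to 15 days, then rated visually against controls on a 0-100 scale (0 no effect, 100 complete control).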

wild oat (Avena fatua) = tested on: wild oat (Avena fatua)
How it was run: as §1

[2] = tested on: blackgrass (Alopecurus myosuroides)
How it was run: as §1

[3] = tested on: green foxtail (Setaria viridis)
How it was run: as §1

[4] = tested on: woolly cupgrass (Eriochloa villosa)
How it was run: as §1

kochia (Kochia scoparia) = tested on: kochia (Kochia scoparia)
How it was run: as §1

[5] = tested on: large crabgrass (Digitaria sanguinalis)
How it was run: as §1

[6] = tested on: yellow nutsedge (Cyperus esculentus)
How it was run: as §1

[7] = tested on: cocklebur (Xanthium strumarium)
How it was run: as §1

[8] = tested on: velvetleaf (Abutilon theophrasti)
How it was run: as §1

corn (Zea mays) = tested on: corn (Zea mays)
How it was run: as §1

[9] = tested on: pigweed (Amaranthus retroflexus)
How it was run: as §1

[10] = tested on: common ragweed (Ambrosia elation)
How it was run: as §1

[11] = tested on: lambsquarters (Chenopodium album)
How it was run: as §1

[12] = Postemergence, 31 g ai/ha, scale 0 to 100, 0 no effect, 100 complete control
[13] = Postemergence, 62 g ai/ha, scale 0 to 100
[14] = Postemergence, 125 g ai/ha, scale 0 to 100
[15] = Postemergence, 250 g ai/ha, scale 0 to 100
[16] = Preemergence, 31 g ai/ha, 0 to 100 scale, 0 no effect, 100 complete control
[17] = Preemergence, 62 g ai/ha, scale 0 to 100
[18] = Preemergence, 125 g ai/ha, scale 0 to 100
[19] = Preemergence, 250 g ai/ha, scale 0 to 100

In the case of `Cc1cc(-c2ccc(Br)cc2)nn1-c1c(OC(=O)C2CC2)cnn(C)c1=O` [Compound 5], the “Plant response rating, Galium” value ([1]; 125 g ai/ha) is reported as 80, the “Plant response rating, Galium” value ([1]; 250 g ai/ha) is reported as 90 and the “Plant response rating, Oat, Wild” value (wild oat (Avena fatua); [12]) is reported as 95. For the same compound, the “Plant response rating, Oat, Wild” value (wild oat (Avena fatua); [13]) was 100, the “Plant response rating, Oat, Wild” value (wild oat (Avena fatua); [14]) was 100 and the “Plant response rating, Oat, Wild” value (wild oat (Avena fatua); [15]) was 100. For the same compound, the “Plant response rating, Oat, Wild” value (wild oat (Avena fatua); [16]) was 30, the “Plant response rating, Oat, Wild” value (wild oat (Avena fatua); [17]) was 70 and the “Plant response rating, Oat, Wild” value (wild oat (Avena fatua); [18]) was 80. For the same compound, the “Plant response rating, Oat, Wild” value (wild oat (Avena fatua); [19]) was 95, the “Blackgrass plant response rating” value ([2]; 250 g ai/ha, preemergence, 0-100 scale) was 100 and the “Plant response rating, Blackgrass” value [2, 12] was 95. For the same compound, the “Plant response rating, Blackgrass” value [2, 13] was 100, the “Plant response rating, Blackgrass” value [2, 14] was 100 and the “Plant response rating, Blackgrass” value [2, 15] was 100. For the same compound, the “Plant response rating, Blackgrass” value [2, 16] was 100, the “Plant response rating, Blackgrass” value [2, 17] was 100 and the “Plant response rating, Blackgrass” value [2, 18] was 100. For the same compound, the “Plant response rating, Foxtail, Green” value [3, 12] was 95, the “Plant response rating, Foxtail, Green” value [3, 13] was 100 and the “Plant response rating, Foxtail, Green” value [3, 14] was 100. For the same compound, the “Plant response rating, Foxtail, Green” value [3, 15] was 100, the “Plant response rating, Foxtail, Green” value [3, 16] was 98 and the “Plant response rating, Foxtail, Green” value [3, 17] was 100. For the same compound, the “Plant response rating, Foxtail, Green” value [3, 18] was 100, the “Plant response rating, Foxtail, Green” value [3, 19] was 100 and the “Plant response rating, Cupgrass, Woolly” value [4, 12] was 95. The “Plant response rating, Cupgrass, Woolly” value [4, 13] was 100, the “Plant response rating, Cupgrass, Woolly” value [4, 14] was 100 and the “Plant response rating, Cupgrass, Woolly” value [4, 15] was 100. The “Plant response rating, Cupgrass, Woolly” value [4, 16] was 50, the “Plant response rating, Cupgrass, Woolly” value [4, 17] was 90 and the “Plant response rating, Cupgrass, Woolly” value [4, 18] was 100. The “Plant response rating, Cupgrass, Woolly” value [4, 19] was 100, the “Plant response rating, Kochia” value (kochia (Kochia scoparia); [12]) was 0 and the “Plant response rating, Kochia” value (kochia (Kochia scoparia); [13]) was 0. The “Plant response rating, Kochia” value (kochia (Kochia scoparia); [14]) was 0, the “Plant response rating, Kochia” value (kochia (Kochia scoparia); [15]) was 70 and the “Plant response rating, Kochia” value (kochia (Kochia scoparia); [17]) was 50. For the same compound, the “Plant response rating, Kochia” value (kochia (Kochia scoparia); [18]) was 50, the “Plant response rating, Kochia” value (kochia (Kochia scoparia); [19]) was 60 and the “Plant response rating, Crabgrass, Large” value [5, 12] was 100. The “Plant response rating, Crabgrass, Large” value [5, 13] was 100, the “Plant response rating, Crabgrass, Large” value [5, 14] was 100 and the “Plant response rating, Crabgrass, Large” value [5, 15] was 100. For the same compound, the “Plant response rating, Crabgrass, Large” value [5, 16] was 100, the “Plant response rating, Crabgrass, Large” value [5, 17] was 100 and the “Plant response rating, Crabgrass, Large” value [5, 18] was 100. For the same compound, the “Plant response rating, Crabgrass, Large” value [5, 19] was 100, the “Plant response rating, Nutsedge, Yellow” value [6, 12] was 0 and the “Plant response rating, Nutsedge, Yellow” value [6, 13] was 0. The “Plant response rating, Nutsedge, Yellow” value [6, 14] was 60, the “Plant response rating, Nutsedge, Yellow” value [6, 17] was 0 and the “Plant response rating, Nutsedge, Yellow” value [6, 18] was 0. For the same compound, the “Plant response rating, Cocklebur” value [7, 12] was 0, the “Plant response rating, Cocklebur” value [7, 13] was 0 and the “Plant response rating, Cocklebur” value [7, 14] was 0. The “Plant response rating, Cocklebur” value [7, 15] was 20, the “Plant response rating, Cocklebur” value [7, 16] was 0 and the “Plant response rating, Cocklebur” value [7, 17] was 0. For the same compound, the “Plant response rating, Cocklebur” value [7, 18] was 0, the “Plant response rating, Velvetleaf” value [8, 12] was 0 and the “Plant response rating, Velvetleaf” value [8, 13] was 0. For the same compound, the “Plant response rating, Velvetleaf” value [8, 14] was 0, the “Plant response rating, Velvetleaf” value [8, 15] was 10 and the “Plant response rating, Velvetleaf” value [8, 16] was 0. For the same compound, the “Plant response rating, Velvetleaf” value [8, 17] was 0, the “Plant response rating, Velvetleaf” value [8, 18] was 0 and the “Plant response rating, Velvetleaf” value [8, 19] was 0. For the same compound, the “Plant response rating, Corn” value (corn (Zea mays); [12]) was 90, the “Plant response rating, Corn” value (corn (Zea mays); [13]) was 100 and the “Plant response rating, Corn” value (corn (Zea mays); [14]) was 100. For the same compound, the “Plant response rating, Corn” value (corn (Zea mays); [15]) was 100, the “Plant response rating, Corn” value (corn (Zea mays); [16]) was 95 and the “Plant response rating, Corn” value (corn (Zea mays); [17]) was 95. For the same compound, the “Plant response rating, Corn” value (corn (Zea mays); [18]) was 98, the “Plant response rating, Corn” value (corn (Zea mays); [19]) was 100 and the “Plant response rating, Pigweed” value [9, 12] was 0. The “Plant response rating, Pigweed” value [9, 13] was 0, the “Plant response rating, Pigweed” value [9, 14] was 45 and the “Plant response rating, Pigweed” value [9, 15] was 45. The “Plant response rating, Pigweed” value [9, 16] was 0, the “Plant response rating, Pigweed” value [9, 17] was 0 and the “Plant response rating, Pigweed” value [9, 18] was 80. For the same compound, the “Plant response rating, Pigweed” value [9, 19] was 100, the “Plant response rating, Ragweed” value [10, 12] was 0 and the “Plant response rating, Ragweed” value [10, 13] was 0. For the same compound, the “Plant response rating, Ragweed” value [10, 14] was 60, the “Plant response rating, Ragweed” value [10, 15] was 65 and the “Plant response rating, Ragweed” value [10, 16] was 0. The “Plant response rating, Ragweed” value [10, 17] was 0, the “Plant response rating, Ragweed” value [10, 18] was 0 and the “Plant response rating, Ragweed” value [10, 19] was 10. For the same compound, the “Plant response rating, Lambsquarters” value [11, 12] was 0, the “Plant response rating, Lambsquarters” value [11, 13] was 20 and the “Plant response rating, Lambsquarters” value [11, 14] was 80. The “Plant response rating, Lambsquarters” value [11, 15] was 80, the “Plant response rating, Lambsquarters” value [11, 18] was 90 and the “Plant response rating, Lambsquarters” value [11, 19] was 100.

Source: patent publication US20100267561A1, “HERBICIDAL PYRIDAZINONE DERIVATIVES” (priority 2007, published 2010)
